Source: ChEMBL document CHEMBL1201862, “PubChem BioAssay data set” (2004)
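Cultured in 96-well plates, cells were exposed to test compound for 48 hours across five concentrations. Abbreviation: GI50, concentration required for 50% inhibition of growth.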 Active and inactive are the calls of the source. No stated cut-off is given here; in the data, active = GI50 up to about 1.1 µM and inactive = higher.

What was measured:
Assay in all cases: inhibition of tumour cell growth, NCI panel, 48 h
MDA-N = test system: MDA-N
LOX IMVI = test system: LOX IMVI
HCT-116 = test system: HCT-116
OVCAR-5 = test system: OVCAR-5
SNB-19 = test system: SNB-19
SK-MEL-5 = test system: SK-MEL-5
MDA-MB-231 = test system: MDA-MB-231
U-251 = test system: U-251
EKVX = test system: EKVX
DU-145 = test system: DU-145
OVCAR-8 = test system: OVCAR-8
HT-29 = test system: HT-29
MCF7 = test system: MCF7
SR = test system: SR
NCI-H23 = test system: NCI-H23
OVCAR-4 = test system: OVCAR-4
T47D = test system: T47D
CCRF-CEM = test system: CCRF-CEM
IGROV-1 = test system: IGROV-1

Measured: GI50

CC(C)CCCC(C)[C@H]1CC[C@H]2NCCCC[C@]12C (stereo partly specified)
inactive: MDA-N 1.96 µM | LOX IMVI 1.85 µM | HCT-116 3.03 µM | OVCAR-5 2.53 µM | SNB-19 5.36 µM | SK-MEL-5 1.6 µM | MDA-MB-231 2.92 µM | U-251 2.4 µM | EKVX 2.28 µM | DU-145 5.56 µM | OVCAR-8 3.03 µM | HT-29 2.34 µM | MCF7 2 µM | SR 2.07 µM | NCI-H23 8.69 µM | OVCAR-4 6.58 µM | T47D 2.77 µM | CCRF-CEM 1.37 µM | IGROV-1 6.19 µM

Cc1csc2n(C)c(=O)c3ccccc3[n+]12
inactive: MDA-N > 100 µM | LOX IMVI > 100 µM | HCT-116 > 100 µM | OVCAR-5 > 100 µM | SNB-19 > 100 µM | SK-MEL-5 98.4 µM | MDA-MB-231 > 100 µM | U-251 > 100 µM | EKVX > 100 µM | DU-145 > 100 µM | OVCAR-8 > 100 µM | HT-29 > 100 µM | MCF7 > 100 µM | SR > 100 µM | NCI-H23 > 100 µM | OVCAR-4 > 100 µM | T47D > 100 µM | CCRF-CEM > 100 µM | IGROV-1 > 100 µM

COC(=O)C(CCSC)NC(=O)CSc1nnc(COc2ccc(Cl)cc2)n1-c1ccccc1 (stereo unspecified)
inactive: MDA-N 18.9 µM | LOX IMVI 13.8 µM | HCT-116 16.6 µM | OVCAR-5 19.5 µM | SNB-19 23.5 µM | SK-MEL-5 18.5 µM | MDA-MB-231 17 µM | U-251 17.1 µM | EKVX 27.6 µM | DU-145 18.2 µM | OVCAR-8 18.6 µM | HT-29 18.3 µM | MCF7 21.1 µM | SR 8.53 µM | NCI-H23 17.8 µM | OVCAR-4 16.1 µM | T47D 27.5 µM | CCRF-CEM 23.7 µM | IGROV-1 16 µM

c1ccc(C2OCC(OC3CCCCO3)CO2)cc1 (stereo unspecified)
inactive: MDA-N > 100 µM | LOX IMVI > 100 µM | HCT-116 > 100 µM | OVCAR-5 > 100 µM | SNB-19 > 100 µM | SK-MEL-5 > 100 µM | MDA-MB-231 > 100 µM | U-251 > 100 µM | EKVX > 100 µM | DU-145 > 100 µM | OVCAR-8 > 100 µM | HT-29 > 100 µM | MCF7 > 100 µM | SR > 100 µM | NCI-H23 > 100 µM | OVCAR-4 > 100 µM | T47D > 100 µM | CCRF-CEM > 10 µM | IGROV-1 > 100 µM

Cc1cn(C2CC(O)C(Cn3nncc3Cn3nc(Br)c(=O)[nH]c3=O)O2)c(=O)[nH]c1=O (stereo unspecified)
inactive: MDA-N > 100 µM | LOX IMVI > 100 µM | HCT-116 > 100 µM | OVCAR-5 > 100 µM | SNB-19 > 100 µM | SK-MEL-5 > 100 µM | MDA-MB-231 > 100 µM | U-251 > 100 µM | EKVX > 100 µM | DU-145 > 100 µM | OVCAR-8 > 100 µM | MCF7 > 100 µM | SR > 100 µM | NCI-H23 > 100 µM | OVCAR-4 > 100 µM | T47D > 100 µM | CCRF-CEM > 100 µM | IGROV-1 > 100 µM

C1CCC2C(C1)CCCC2NC1=NCCO1 (stereo unspecified)
inactive: MDA-N > 100 µM | LOX IMVI > 100 µM | HCT-116 > 100 µM | OVCAR-5 > 100 µM | SNB-19 > 100 µM | SK-MEL-5 70 µM | MDA-MB-231 > 100 µM | U-251 > 100 µM | EKVX > 100 µM | DU-145 > 100 µM | OVCAR-8 > 100 µM | HT-29 35.7 µM | MCF7 69.2 µM | SR 45 µM | NCI-H23 > 100 µM | OVCAR-4 > 100 µM | T47D > 100 µM | CCRF-CEM > 100 µM | IGROV-1 > 100 µM

COc1ccc(C2c3cc4c(cc3OC3(OC)COC(=O)C23)OCO4)c(OC)c1 (stereo unspecified)
inactive: MDA-N 1.77 µM | LOX IMVI 6.95 µM | HCT-116 5.33 µM | OVCAR-5 54.7 µM | SNB-19 14.2 µM | SK-MEL-5 4.84 µM | MDA-MB-231 27.1 µM | U-251 7.35 µM | EKVX 16.2 µM | DU-145 31.9 µM | OVCAR-8 9.84 µM | HT-29 3.4 µM | MCF7 4.85 µM | SR 4.49 µM | NCI-H23 29.3 µM | OVCAR-4 19.1 µM | T47D 29.4 µM | CCRF-CEM 4.32 µM | IGROV-1 10.5 µM

COc1ccc(C(C)NNC(=O)c2cc[n+]([BH2-]C#N)cc2)cc1F (stereo unspecified)
inactive: MDA-N > 100 µM | LOX IMVI > 100 µM | HCT-116 > 100 µM | OVCAR-5 > 100 µM | SNB-19 > 100 µM | SK-MEL-5 > 100 µM | MDA-MB-231 > 100 µM | U-251 > 100 µM | EKVX > 100 µM | DU-145 > 100 µM | OVCAR-8 > 100 µM | HT-29 > 100 µM | MCF7 > 100 µM | SR > 100 µM | NCI-H23 96.2 µM | OVCAR-4 > 100 µM | T47D > 100 µM | CCRF-CEM > 100 µM | IGROV-1 > 100 µM
